{"source": "patent US10852236B2", "about": "“Method of measuring plant nutrient transport using near-infrared imaging” (Curadel, LLC, priority 2017, dated 2020)", "key": {"[1]": {"assay": "in vivo early half-life of the dye", "conditions": "dye in its small molecule form"}, "[2]": {"assay": "solubility of the dye in the plant nutrient", "format": "physicochemical", "conditions": "dye in its small molecule form; nutrient may be water"}}, "data": [{"smiles": "CC1(C)C(/C=C/C=C/C=C/C=C2\\N(CCCCS(=O)(=O)O)c3ccc4ccccc4c3C2(C)C)=[N+](CCCCS(=O)(=O)[O-])c2ccc3ccccc3c21", "note": "[Indocyanine green, indocyanine green]", "values": [{"measurement": "in vivo early half-life", "setting": "[1]", "result": "shorter"}, {"measurement": "solubility in the nutrient", "setting": "[2]", "result": "somewhat less soluble"}]}]}
